From ChEMBL document CHEMBL1156276, “Solvent free synthesis, anti-inflammatory and anticancer activity evaluation of tricyclic and tetracyclic benzimidazole derivatives” (2010)
Counter-ions that a name gives are not always drawn.

Tests used:
Type in all cases: functional
PC-3 = test: Anticancer activity against human PC3 cells assessed as cell growth inhibition at 10 uM after 48 hrs by SRB assay; conditions: PC-3, 48 h, read-out: GI
SF-295 = test: Anticancer activity against human SF295 cells assessed as cell growth inhibition at 10 uM after 48 hrs by SRB assay; conditions: SF-295, 48 h, read-out: GI
HOP-62 = test: Anticancer activity against human HOP62 cells assessed as cell growth inhibition at 10 uM after 48 hrs by SRB assay; conditions: HOP-62, 48 h, read-out: GI
Rattus norvegicus = test: Antiinflammatory activity against carrageenan-induced paw edema in rat assessed as paw volume at 50 mg/kg, po administered 30 mins before carrageenan challenge measured after 1 to 3 hrs by water plethysmometer relative to control
IGROV-1 = test: Anticancer activity against human IGROV1 cells assessed as cell growth inhibition at 10 uM after 48 hrs by SRB assay; conditions: IGROV-1, 48 h, read-out: GI
MCF7 = test: Anticancer activity against human MCF7 cells assessed as cell growth inhibition at 10 uM after 48 hrs by SRB assay; conditions: MCF7, 48 h, read-out: GI
A549 = test: Anticancer activity against human A549 cells assessed as cell growth inhibition at 10 uM after 48 hrs by SRB assay; conditions: A549, 48 h, read-out: GI

O=C1CCc2nc3ccc(Br)cc3n21
inhibition of growth at 10 µM (PC-3): 40%
inhibition of growth at 10 µM (SF-295): 0%
inhibition of growth at 10 µM (HOP-62): 16%
Activity (Rattus norvegicus): 10%
inhibition of growth at 10 µM (IGROV-1): 50%
inhibition of growth at 10 µM (MCF7): 31%
inhibition of growth at 10 µM (A549): 12%

O=C1c2nccnc2C2=Nc3ccccc3CN12
inhibition of growth at 10 µM (PC-3): 46%
inhibition of growth at 10 µM (SF-295): 66%
inhibition of growth at 10 µM (HOP-62): 23%
Activity (Rattus norvegicus): 28.6%
inhibition of growth at 10 µM (IGROV-1): 55%
inhibition of growth at 10 µM (MCF7): 56%
inhibition of growth at 10 µM (A549): 48%

COc1cccc2c1C(=O)c1c(O)c3c(c(O)c1C2=O)C[C@@](O)(C(=O)CO)C[C@@H]3O[C@H]1C[C@H](N)[C@H](O)[C@H](C)O1 [DOXORUBICIN HYDROCHLORIDE]
inhibition of growth at 10 µM (SF-295): 69%
inhibition of growth at 10 µM (MCF7): 72%

Cc1cc2[nH]c3cc4ccccc4c(=O)n3c2cc1C
inhibition of growth at 10 µM (PC-3): 39%
inhibition of growth at 10 µM (SF-295): 13%
inhibition of growth at 10 µM (HOP-62): 0%
Activity (Rattus norvegicus): 29.6%
inhibition of growth at 10 µM (IGROV-1): 7%
inhibition of growth at 10 µM (MCF7): 22%
inhibition of growth at 10 µM (A549): 41%

O=c1c2ccccc2cc2n1C1CCCCC1N2 (configuration not stated)
inhibition of growth at 10 µM (PC-3): 6%
inhibition of growth at 10 µM (SF-295): 0%
inhibition of growth at 10 µM (HOP-62): 12%
Activity (Rattus norvegicus): 34.7%
inhibition of growth at 10 µM (IGROV-1): 28%
inhibition of growth at 10 µM (MCF7): 6%
inhibition of growth at 10 µM (A549): 10%

O=c1c2ccccc2cc2[nH]c3cccc(O)c3n12
inhibition of growth at 10 µM (PC-3): 13%
inhibition of growth at 10 µM (SF-295): 55%
inhibition of growth at 10 µM (HOP-62): 0%
Activity (Rattus norvegicus): 31.8%
inhibition of growth at 10 µM (IGROV-1): 15%
inhibition of growth at 10 µM (MCF7): 20%
inhibition of growth at 10 µM (A549): 0%

O=C1CCc2nc3ccc(Cl)cc3n21
inhibition of growth at 10 µM (PC-3): 14%
inhibition of growth at 10 µM (SF-295): 37%
inhibition of growth at 10 µM (HOP-62): 11%
Activity (Rattus norvegicus): 27.6%
inhibition of growth at 10 µM (IGROV-1): 0%
inhibition of growth at 10 µM (MCF7): 52%
inhibition of growth at 10 µM (A549): 3%

Cc1cccc2nc3n(c12)C(=O)CC3
inhibition of growth at 10 µM (PC-3): 14%
inhibition of growth at 10 µM (SF-295): 38%
inhibition of growth at 10 µM (HOP-62): 0%
Activity (Rattus norvegicus): 29.9%
inhibition of growth at 10 µM (IGROV-1): 3%
inhibition of growth at 10 µM (MCF7): 8%
inhibition of growth at 10 µM (A549): 2%

O=C1c2nccnc2C2=NC3CCCCC3N12 (configuration not stated)
inhibition of growth at 10 µM (PC-3): 15%
inhibition of growth at 10 µM (SF-295): 37%
inhibition of growth at 10 µM (HOP-62): 6%
Activity (Rattus norvegicus): 25.6%
inhibition of growth at 10 µM (IGROV-1): 28%
inhibition of growth at 10 µM (MCF7): 48%
inhibition of growth at 10 µM (A549): 10%

CC(=O)O[C@H]1C(=O)[C@@]2(C)[C@H]([C@H](OC(=O)c3ccccc3)[C@]3(O)C[C@H](OC(=O)[C@H](O)[C@@H](NC(=O)c4ccccc4)c4ccccc4)C(C)=C1C3(C)C)[C@]1(OC(C)=O)CO[C@@H]1C[C@@H]2O [PACLITAXEL]
inhibition of growth at 10 µM (HOP-62): 42%
inhibition of growth at 10 µM (IGROV-1): 43%
inhibition of growth at 10 µM (A549): 50%

CO[C@@]12[C@H](COC(N)=O)C3=C(C(=O)C(C)=C(N)C3=O)N1C[C@@H]1N[C@@H]12 [MITOMYCIN]
inhibition of growth at 10 µM (PC-3): 53%
inhibition of growth at 10 µM (SF-295): 43%

O=C1CCc2nc3cccc(O)c3n21
inhibition of growth at 10 µM (PC-3): 13%
inhibition of growth at 10 µM (SF-295): 53%
inhibition of growth at 10 µM (HOP-62): 9%
Activity (Rattus norvegicus): 39.2%
inhibition of growth at 10 µM (IGROV-1): 20%
inhibition of growth at 10 µM (MCF7): 22%
inhibition of growth at 10 µM (A549): 0%

O=C1c2nccnc2-c2nc3ccccc3n21
inhibition of growth at 10 µM (PC-3): 13%
inhibition of growth at 10 µM (SF-295): 25%
inhibition of growth at 10 µM (HOP-62): 10%
Activity (Rattus norvegicus): 10%
inhibition of growth at 10 µM (IGROV-1): 15%
inhibition of growth at 10 µM (MCF7): 20%
inhibition of growth at 10 µM (A549): 0%

N#Cc1ccc2nc3n(c2c1)C(=O)CC3
inhibition of growth at 10 µM (PC-3): 3%
inhibition of growth at 10 µM (SF-295): 52%
inhibition of growth at 10 µM (HOP-62): 0%
Activity (Rattus norvegicus): 9%
inhibition of growth at 10 µM (IGROV-1): 21%
inhibition of growth at 10 µM (MCF7): 25%
inhibition of growth at 10 µM (A549): 6%

O=C1CCC2=NC3CCCCC3N12 (configuration not stated)
inhibition of growth at 10 µM (PC-3): 16%
inhibition of growth at 10 µM (SF-295): 38%
inhibition of growth at 10 µM (HOP-62): 0%
Activity (Rattus norvegicus): 19.7%
inhibition of growth at 10 µM (IGROV-1): 2%
inhibition of growth at 10 µM (MCF7): 13%
inhibition of growth at 10 µM (A549): 2%

Cc1cc2nc3n(c2cc1C)C(=O)c1nccnc1-3
inhibition of growth at 10 µM (PC-3): 39%
inhibition of growth at 10 µM (SF-295): 13%
inhibition of growth at 10 µM (HOP-62): 0%
Activity (Rattus norvegicus): 15.9%
inhibition of growth at 10 µM (IGROV-1): 7%
inhibition of growth at 10 µM (MCF7): 22%
inhibition of growth at 10 µM (A549): 25%

O=C1CCc2nc3ccc([N+](=O)[O-])cc3n21
inhibition of growth at 10 µM (PC-3): 8%
inhibition of growth at 10 µM (SF-295): 38%
inhibition of growth at 10 µM (HOP-62): 0%
Activity (Rattus norvegicus): 0%
inhibition of growth at 10 µM (IGROV-1): 0%
inhibition of growth at 10 µM (MCF7): 12%
inhibition of growth at 10 µM (A549): 5%

Cc1cc2nc3n(c2cc1C)C(=O)CC3
inhibition of growth at 10 µM (PC-3): 7%
inhibition of growth at 10 µM (SF-295): 54%
inhibition of growth at 10 µM (HOP-62): 4%
Activity (Rattus norvegicus): 39.4%
inhibition of growth at 10 µM (IGROV-1): 26%
inhibition of growth at 10 µM (MCF7): 8%
inhibition of growth at 10 µM (A549): 0%
